Data set [1] concerns Rhodotorula mucilaginosa ATCC 4056. Briefly: MIC/MFC, microdilution method (modified CLSI M27). Format: cell-based. Particulars: 28 °C; for MFC: R. mucilaginosa ATCC 4056, no growth on solid YPG, read-out: Minimum fungicidal concentration (MFC*); for Minimum inhibitory concentration (MIC): 90% growth inhibition. On the procedure:
(§1) Minimum inhibitory concentration (MIC) and minimum fungicidal concentration (MFC) values were determined based on the modified CLSI M27 protocol. The study was performed using the microdilution method on sterile 96-well titration plates. The S. cerevisiae Σ1278b ATCC 42800, S. cerevisiae BY4741 ATCC 201388, C. albicans ATCC 10231, C. albicans 595/20 and R. mucilaginosa ATCC 4056 were incubated for 18 h at 28 °C (without shaking), then centrifuged (1000 rcf, 5 min), and the obtained pellet was suspended in fresh YPG medium and optical density (OD) = 0.25–0.3 was determined at a wavelength (λ) of 590 nm. Next, 10 μl of selected compounds at appropriate final concentrations (5–1280 μM) were spotted into the wells of the titration plate. Then, 80 μl of YPG medium and 10 μl of culture with a fixed OD were added. All tests were performed in triplicate. The plate was incubated at 28 °C for 24 h. The YPG medium was a negative control, while the prepared culture not treated with compounds was a positive control. […] The minimum inhibitory concentration was determined at 90% growth inhibition.
(§2) In order to determine the MFC of selected gemini surfactants, 10 μl of culture was transferred to solid YPG medium from the wells of the titration plate in which MIC was observed and from wells with the compound with higher concentrations. The spotted suspensions were incubated at 28 °C for 24 h. After incubation, inhibition of the growth of microorganisms was observed.
(Broth dilution looks for growth in wells or tubes with falling amounts of substance.)

The subject of the next data set is Candida albicans 595/20. The data set is described as follows: MIC/MFC, microdilution method (modified CLSI M27). The note with it: C. albicans 595/20 (clinical isolate), 28 °C; for MIC / MFC: Candida albicans; for MIC: 595/20, 24 h, read-out: Minimum inhibitory concentration (MIC); for MFC: read-out: Minimum fungicidal concentration (MFC*). Format: cell-based. How it is done:
as §1, §2

The subject of data set [2] is Candida albicans ATCC 10231. The data set is described as follows: MIC/MFC, microdilution method (modified CLSI M27). Format: cell-based. The note with it: 28 °C; for MIC / MFC: Candida albicans, ATCC10231, 24 h; for MIC: C. albicans ATCC 10231, 90% growth inhibition, read-out: Minimum inhibitory concentration (MIC); for MFC: C. albicans ATCC 10231, no growth on solid YPG, read-out: Minimum fungicidal concentration (MFC*). On the procedure: as §1, §2

In data set [3] the test system is Saccharomyces cerevisiae Σ1278b ATCC 42800. The data set is described as follows: MIC/MFC, microdilution method (modified CLSI M27). Format: cell-based. The note with it: S. cerevisiae Σ1278b, 28 °C; for MIC: 90% growth inhibition, YPG, read-out: Minimum inhibitory concentration (MIC); for MFC: no growth on solid YPG, read-out: Minimum fungicidal concentration (MFC*). On the procedure: as §1, §2

Data set [4] relates to Saccharomyces cerevisiae BY4741 ATCC 201388. Briefly: MIC/MFC, microdilution method (modified CLSI M27). It counts as cell-based. Particulars: for MIC: YPG, read-out: Minimum inhibitory concentration (MIC); for MFC: read-out: Minimum fungicidal concentration (MFC*), S. cerevisiae BY4741, no growth on solid YPG, 28 °C. How it is done: as §1, §2
Data set [5] concerns Salmonella Typhimurium TA100. The note with it: for Number of colonies: ± SD. On the procedure: The mutagenic potential of the tested gemini QAS was determined using the Ames test[83] using Salmonella Typhimurium TA98 and Salmonella Typhimurium TA100 with defects in histidine biosynthesis. The culture of S. Typhimurium TA98 and S. Typhimurium TA100 was incubated with shaking at 37 °C for 18 h, centrifuged (3000 rpm, 5 min) and OD = 1.5 was determined, at a wavelength of λ = 590 nm. The agar was dissolved and cooled to 42 °C. […] The media were incubated for 48 h at 37 °C. The positive control for the S. Typhimurium TA98 strain was acriflavin (100 μg/ml), and for the S. Typhimurium TA100 strain, sodium azide (15 μg/ml). The negative control was the culture without tested compound and with NaCl (0,9%). After incubation, the colonies were counted and the mutagenicity index (MR) was determined—the ratio of the number of revertants resulting from the mutagenic effect of the tested compound to the number of spontaneous revertants. Experiment was performed in three repetitions.

Data set [6] has as its system S. cerevisiae Σ1278b ATCC 42800. The data set is described as follows: Cytotoxicity, alamarBlue (resazurin) assay on yeast cells. The note with it: ¼ and ½ MIC. Format: cell-based, Saccharomyces cerevisiae. On the procedure: To determine the cytotoxicity of the tested gemini QAS on yeast cells, an experiment was performed using the alamarBlue colorimetric assay to determine the metabolic activity of cells, using the modified alamarBlue Cell Viability Assay Reagent method. Enzymes of the electron transport system reduce the blue resazurin solution to resorufin, which is fluorescent pink.
The yeast culture S. cerevisiae Σ1278b was incubated at 28 °C for 16 h with shaking (100 rpm), centrifuged (1000 rcf, 5 min) and the optical density was obtained, OD = 1.0, λ = 590 nm. On a 96-well titration plate we spotted 160 μl of YPG medium, 20 μl of yeast culture and the tested gemini QAS at final concentrations of ½ and ¼ MIC. The negative control was YPG medium with resazurin solution, and the positive control was resazurin solution with yeast culture. The plates were incubated at 28 °C for 12 h. Then, 20 μl of resazurin solution (alamarBlue) was added to the wells and the plate was incubated for 4 h in the dark. After incubation, the absorbance was measured at λ = 570 nm and λ = 600 nm and the color change of the wells from blue to pink was observed. The experiment was performed in 3 repetitions.
(In general: The colour change of resazurin is a common sign of viable cells or microbes.)

The subject of another data set is C. albicans ATCC 10231. Briefly: Filamentation of Candida albicans (DIC microscopy). It counts as cell-based. The note with it: 24 h incubation, ½ MIC, 37 °C. How it is done: The culture of C. albicans ATCC 10231 was incubated in YPG medium at 28 °C for 18 h. Then the culture was centrifuged (1000 rcf, 5 min), and the resulting pellet was suspended in fresh YPG medium to obtain a culture with OD = 0.6. […] The formation of filaments was observed using a differential interference contrast microscope (Olympus BX50 DIC Microscope) after 12 and 24 h of exposure to selected surfactants on C. albicans cells. The control was a culture not exposed to gemini QAS. The experiment was performed based on a modification of the protocol of Obłąk et al. ^46.

Data set [7] can be described thus: Krafft point (TK) determination. Format: physicochemical. On the procedure: Elemental analysis was conducted utilizing Vario EL cube (Elementar, Germany) calibrated on acetanilide. Mass spectra were gain by electrospray ionization mass spectroscopy (ESI–MS) (micrOTOF-Q instrument; Bruker Daltonics, Germany). The ESI–MS aparatus was operated in the positive ion mode (calibrated with the Tunemix™ mixture; Bruker Daltonics; Germany), followed by spectra analysis by the DataAnalysis 3.4 software (Bruker Daltonics, Germany)—resolution of at least 5 ppm. Proton NMR and ^13C NMR measurements were performed on a Bruker AMX-500 spectrometer, utilizing CDCl3 or DMSO-d6 as a solvent. Proton and ^13C chemical shifts (given in ppm) were calibrated to TMS (δ = 0 ppm) as an internal reference. Krafft points were measured according to procedures described in our previous studies Lamch et al.,[82]. Values of CMC for all surfactants were measured utilizing the conductometric method for the compounds’ solutions in milliQ water in the same manner as described in Kula et al.. For all spectra: ^1H NMR, ^13C NMR and ESI–MS as well as appropriate comments see Electronic Supplementary Material.

[8] abbreviates: Rhodotorula mucilaginosa, ATCC4056, 24 h.
Setting [9] is: Saccharomyces cerevisiae, ATCC42800, 24 h.
Setting [10] is: Saccharomyces cerevisiae, ATCC201388, 24 h, S. cerevisiae BY4741, 90% growth inhibition, 28 °C.
The mark [11] stands for this setting: Saccharomyces cerevisiae, ATCC201388, 24 h.
[12] abbreviates: R. mucilaginosa ATCC 4056, YPG, 24 h.

Molecules are shown by their SMILES. Like-named read-outs stand apart in the source and are kept apart here. Marks after values point to notes of the source that are not given here.

For `CCCCCCCCCCCCCC(=O)N(CCCN(CCC[N+](C)(C)C)C(=O)CCCCCCCCCCCCC)CCC[N+](C)(C)C` [2xC14BrG3], the MIC came out at 80 µM in [1] (Rhodotorula mucilaginosa, ATCC4056, 24 h, R. mucilaginosa ATCC 4056, 90% growth inhibition, YPG, read-out: Minimum inhibitory concentration (MIC)); 640 µM in the data set on Candida albicans 595/20 (90% growth inhibition, YPG); 640 µM in [2] (YPG); 360 µM in data set [3] (setting [9]); 160 µM in data set [4] (setting [10]). The MFC in data set [1] (setting [8]) was 320 µM; in the data set with Candida albicans 595/20 (no growth on solid YPG, 24 h), > 1280 µM; in data set [2], 1280 µM; in [3] (setting [9]) it was 640 µM; in data set [4] (setting [11]), 1280 µM. The “Mutagenicity ratio (MR)” value was determined as 0.99 in data set [5] (TA100, ¼ MIC) and 0.98 in data set [5] (TA100, ½ MIC). Further, the Number of colonies is reported as 199.0 ± 1.41 in data set [5] (TA100, ¼ MIC) and 197.0 ± 0.71 in [5] (TA100, ½ MIC). The “Cytotoxic potential towards mitochondrial metabolism of S. cerevisiae Σ1278b cells” value in [6] is recorded as “did not have cytotoxic potential”. The “Effect on production of filaments by C. albicans” value (“Effect on production of filaments” for short) in the data set on C. albicans ATCC 10231 is “had little effect on the formation of filaments”. Moreover, the “TK (Krafft point)” value in data set [7] was < 0 °C.

Regarding `CCCCCCCCCCCCCCCC(=O)N(CCCN(CCC[N+](C)(C)C)C(=O)CCCCCCCCCCCCCCC)CCC[N+](C)(C)C` [2xC16BrG3], the “Minimum inhibitory concentration (MIC)” value in data set [1] (setting [12]) is on record as > 640 640* µM. Also, the MFC in data set [1] (setting [8]) is 640 µM; in the data set with Candida albicans 595/20 (no growth on solid YPG, 24 h), > 1280 µM; in data set [2] it was > 1280 µM; in data set [3] (setting [9]), > 1280 µM; in [4] (setting [11]) it was > 1280 µM. Besides, the MIC in the data set on Candida albicans 595/20 (90% growth inhibition, YPG) is > 1280 µM; in [2] (YPG), > 1280 µM; in [3] (setting [9]), > 1280 µM; in data set [4] (setting [10]) it was 320 µM. In data set [5] (TA100, ¼ MIC), this compound came in with a Number of colonies of 380.0 ± 1.37. Further, the “Mutagenicity ratio (MR)” value in data set [5] (TA100, ½ MIC) is reported as 1.50. In addition, the “Cytotoxic potential towards mitochondrial metabolism of S. cerevisiae Σ1278b cells” value in data set [6] was “did not have cytotoxic potential”. The “Effect on production of filaments” value in the data set with C. albicans ATCC 10231 (listed as dibromides with 16-carbon alkyl chains) is listed as “largely prevented the formation of filaments”. For the same compound, the “TK (Krafft point)” value in [7] is ~ 5 °C.

For `CCCCCCCCCCCC(=O)N(CCCN(CCC[N+](C)(C)C)C(=O)CCCCCCCCCCC)CCC[N+](C)(C)C` [2xC12MeCO3G3, dimethyl{{3-[N-(3-{N-[3-(dimethylammonium)propyl]dodecylamido}propyl}dodecylamido}propyl}}ammonium dimethylcarbonate], the “Minimum inhibitory concentration (MIC)” value is 320 320* µM in data set [1] (setting [12]); > 1280 > 1280* µM with Candida albicans 595/20 (90% growth inhibition, YPG, 24 h); > 1280 > 1280* µM in data set [2] (C. albicans ATCC 10231, 90% growth inhibition, YPG, 24 h). Besides, the “Minimum fungicidal concentration (MFC*)” value is listed as 320 320* µM in [1] (R. mucilaginosa ATCC 4056, no growth on solid YPG, 24 h); > 1280 > 1280* µM in the data set with Candida albicans 595/20 (no growth on solid YPG, 24 h); > 1280 > 1280* µM in data set [2] (C. albicans ATCC 10231, no growth on solid YPG, 24 h); 1280 µM in data set [4] (S. cerevisiae BY4741, no growth on solid YPG, 28 °C, 24 h). Besides, the MIC in data set [3] (24 h) worked out at 640 µM; in data set [4] (S. cerevisiae BY4741, 90% growth inhibition, 28 °C, 24 h), 160 µM. Moreover, in data set [3] (24 h), the MFC was > 1280 µM. Moreover, the “Mutagenicity ratio (MR)” value worked out at 0.87 in data set [5] (TA100, ¼ MIC) and 1.57 in data set [5] (TA100, ½ MIC). Also, the Number of colonies in data set [5] (TA100, ¼ MIC) came to 243.0 ± 8.49; in data set [5] (TA100, ½ MIC), 438.0 ± 2.83. Moreover, the “Cytotoxic potential towards mitochondrial metabolism of S. cerevisiae Σ1278b cells” value in data set [6] is recorded as “did not have cytotoxic potential”. Also, the “Effect on production of filaments” value with C. albicans ATCC 10231 is given as “almost completely inhibited the production of filaments”. In data set [7], the “TK (Krafft point)” value was < 0 °C.

These data come from PMC11187217, “Anti-adhesive, anti-biofilm and fungicidal action of newly synthesized gemini quaternary ammonium salts” (Scientific Reports, 2024).
